Laboratory results as given in US20100022562A1, “Use of Plant Growth Regulators to Reduce Abscisic Acid Related Plant Leaf Yellowing” (priority 2008, published 2010).

Key:
Pansy plants [1] = assay: Pansy leaf transpiration rate (LI-1600 Steady State Porometer); type: in vivo; details: for Transpiration rate (% of control): Matrix Premium Rose
Protocol: (§1) Uniform plants were selected for the study. Prior to chemical treatment, plants were saturated with water and then drained for about two hours. A total of 20 mL chemical solution, which is equivalent to about 10% of the cell volume, was applied to each plant with 3 mL solution foliar applied to canopy and 17 mL solution drench applied to root zone. Unless specified, watering of plants was stopped after chemical treatment.
(§2) After chemical treatment, plants were arranged in a randomized complete block experimental design. The plants were rated daily for the extent of wilting on a scale from 1 (no wilting) to 4 (complete wilting) to generated a sales index rating. A rating of 2.5 was the point at which a plant was determined to be unmarketable and the previous day was recorded as the shelf life of that plant in days. Yellow leaf number was counted at 3 days after chemical treatment. Leaf transpiration rate was measured after treatment using a LI-1600 Steady State Porometer (LI-Cor, Lincoln, Nebr.). The transpiration rate of each treatment was calculated as the percentage of that of control at each day to reduce day-to-day variation caused by changes of environmental condition such as light intensity, humidity, and temperature.

Pansy plants [2] = assay: Pansy shelf life under drought (daily wilting rating, sales index); type: in vivo
Protocol: All studies were conducted in the greenhouse at the research farm of Valent BioSciences Corporation (Long Grove, Ill.). Pansy plants were obtained either from local retailers as mature plants, or plugs from wholesale nurseries. Plugs of Pansy plants were transplanted into an 18-cell flat filled with Promix BX (available from Premier Horticulture Inc. Quakertown, Pa.) and grown for about 30 days prior to treatment. During growing periods, plants received daily irrigation and weekly fertilizer (1 g/L all purpose fertilizer 20-20-20, The Scotts Company, Marysville, Ohio).
as §1, §2

For “(S)-5-(1-hydroxy-2,6,6,-trimethyl-4-oxo-2-cyclohexen-1-yl)-3-methyl-(2Z,4E)-pentadienoic acid [ABA]”, the “Transpiration rate (% of control)” value (Pansy plants [1]; 3 mg ABA, no water, day 1 after treatment, Table 14) was 22 % of control, the “Transpiration rate (% of control)” value (Pansy plants [1]; 3 mg ABA, no water, day 2 after treatment, Table 14) was 15 % of control and the “Transpiration rate (% of control)” value (Pansy plants [1]; 3 mg ABA, no water, day 3 after treatment, Table 14) was 34 % of control. For the same substance, the “Transpiration rate (% of control)” value (Pansy plants [1]; 3 mg ABA, no water, day 4 after treatment, Table 14) was 35 % of control, the “Transpiration rate (% of control)” value (Pansy plants [1]; 3 mg ABA, no water, day 5 after treatment, Table 14) was 27 % of control and the “Transpiration rate (% of control)” value (Pansy plants [1]; 3 mg ABA, watered, day 1 after treatment, Table 14) was 23 % of control. For the same substance, the “Transpiration rate (% of control)” value (Pansy plants [1]; 3 mg ABA, watered, day 2 after treatment, Table 14) was 18 % of control, the “Transpiration rate (% of control)” value (Pansy plants [1]; 3 mg ABA, watered, day 3 after treatment, Table 14) was 36 % of control and the “Transpiration rate (% of control)” value (Pansy plants [1]; 3 mg ABA, watered, day 4 after treatment, Table 14) was 43 % of control. The “Transpiration rate (% of control)” value (Pansy plants [1]; 3 mg ABA, watered, day 5 after treatment, Table 14) was 59 % of control, the “Transpiration rate (% of control)” value (Pansy plants [1]; 3 mg ABA, watered, day 7 after treatment, Table 14) was 76 % of control and the “Transpiration rate (% of control)” value (Pansy plants [1]; 3 mg ABA, watered, day 10 after treatment, Table 14) was 97 % of control. For the same substance, the “Transpiration rate (% of control)” value (Pansy plants [1]; 3 mg ABA, watered, day 15 after treatment, Table 14) was 97 % of control, the Transpiration inhibition (Pansy plants [1]; 3 mg ABA, watered, within 5 days after treatment) was “more than 50%” and the “Transpiration rate (% of control)” value (Pansy plants [1]; 30 mg ABA, day 1 after ABA treatment, Table 12) was 6 % of control. For the same substance, the “Transpiration rate (% of control)” value (Pansy plants [1]; 30 mg ABA, day 2 after ABA treatment, Table 12) was 8 % of control, the “Transpiration rate (% of control)” value (Pansy plants [1]; 30 mg ABA, day 3 after ABA treatment, Table 12) was 11 % of control and the “Transpiration rate (% of control)” value (Pansy plants [1]; 30 mg ABA, no water, day 1 after treatment, Table 14) was 7 % of control. The “Transpiration rate (% of control)” value (Pansy plants [1]; 30 mg ABA, no water, day 2 after treatment, Table 14) was 8 % of control, the “Transpiration rate (% of control)” value (Pansy plants [1]; 30 mg ABA, no water, day 3 after treatment, Table 14) was 8 % of control and the “Transpiration rate (% of control)” value (Pansy plants [1]; 30 mg ABA, no water, day 4 after treatment, Table 14) was 15 % of control. For the same substance, the “Transpiration rate (% of control)” value (Pansy plants [1]; 30 mg ABA, no water, day 5 after treatment, Table 14) was 21 % of control, the “Transpiration rate (% of control)” value (Pansy plants [1]; 30 mg ABA, no water, day 7 after treatment, Table 14) was 27 % of control and the “Transpiration rate (% of control)” value (Pansy plants [1]; 30 mg ABA, watered, day 1 after treatment, Table 14) was 7 % of control. The “Transpiration rate (% of control)” value (Pansy plants [1]; 30 mg ABA, watered, day 2 after treatment, Table 14) was 7 % of control, the “Transpiration rate (% of control)” value (Pansy plants [1]; 30 mg ABA, watered, day 3 after treatment, Table 14) was 9 % of control and the “Transpiration rate (% of control)” value (Pansy plants [1]; 30 mg ABA, watered, day 4 after treatment, Table 14) was 15 % of control. The “Transpiration rate (% of control)” value (Pansy plants [1]; 30 mg ABA, watered, day 5 after treatment, Table 14) was 21 % of control, the “Transpiration rate (% of control)” value (Pansy plants [1]; 30 mg ABA, watered, day 7 after treatment, Table 14) was 28 % of control and the “Transpiration rate (% of control)” value (Pansy plants [1]; 30 mg ABA, watered, day 10 after treatment, Table 14) was 56 % of control. The “Transpiration rate (% of control)” value (Pansy plants [1]; 30 mg ABA, watered, day 15 after treatment, Table 14) was 99 % of control, the Transpiration inhibition (Pansy plants [1]; 30 mg ABA, watered, through 10 days after treatment) was “more than 50%” and the Shelf life (Pansy plants [2]; 0.3 mg ABA, Matrix Yellow, Table 5) was 4.8 days. It also gave a Shelf life (Pansy plants [2]; 0.3 mg ABA, Matrix Yellow, Table 6) of 4.8 days, a Shelf life (Pansy plants [2]; 0.3 mg ABA, Matrix Yellow, Table 17) of 3.2 days and a Shelf life (Pansy plants [2]; 1 mg, Matrix Orange, drought, Table 1) of 5.0 days. It also gave a Shelf life (Pansy plants [2]; 3 mg ABA, Colossus Formula Mix, no water, Table 20) of 5.2 days, a Shelf life (Pansy plants [2]; 3 mg ABA, Delta Premium Pure White, Table 21) of 8.3 days and a Shelf life (Pansy plants [2]; 3 mg ABA, Delta Premium Pure White, Table 22) of 5.7 days. For the same substance, the Shelf life (Pansy plants [2]; 3 mg ABA, Delta Premium Pure White, Table 24) was 5.2 days, the Shelf life (Pansy plants [2]; 3 mg ABA, Matrix Yellow, Table 5) was 5.7 days and the Shelf life (Pansy plants [2]; 3 mg ABA, Matrix Yellow, Table 6) was 6.0 days. The Shelf life (Pansy plants [2]; 3 mg ABA, Matrix Yellow, Table 17) was 4.3 days, the Shelf life (Pansy plants [2]; 3 mg ABA, no water, Matrix Premium Rose, Table 13) was 4.8 days and the Shelf life (Pansy plants [2]; 3 mg, Clear Sky Yellow, drought, Table 8) was 6.5 days. For the same substance, the Shelf life (Pansy plants [2]; 3 mg, Crown Azure Blue, drought, Table 9) was 5.2 days, the Shelf life (Pansy plants [2]; 3 mg, Delta Premium Pure Golden Yellow, advanced seedling stage (1 month old), drought, Table 4) was 4.2 days and the Shelf life (Pansy plants [2]; 3 mg, Delta Premium Pure Golden Yellow, drought, Table 3) was 5.3 days. It also gave a Shelf life (Pansy plants [2]; 3 mg, Matrix Orange, drought, Table 1) of 5.8 days, a Shelf life (Pansy plants [2]; 3 mg, Matrix Orange, drought, Table 2) of 5.2 days and a Shelf life (Pansy plants [2]; 3 mg, Matrix Yellow, drought, Table 7) of 7.7 days. The Shelf life (Pansy plants [2]; 3 mg, Matrix Yellow, drought, Table 10) was 4.3 days, the Shelf life (Pansy plants [2]; 10 mg, Delta Premium Pure Golden Yellow, advanced seedling stage (1 month old), drought, Table 4) was 5.7 days and the Shelf life (Pansy plants [2]; 10 mg, Delta Premium Pure Golden Yellow, drought, Table 3) was 6.5 days. For the same substance, the Shelf life (Pansy plants [2]; 10 mg, Matrix Orange, drought, Table 1) was 7.0 days, the Shelf life (Pansy plants [2]; 10 mg, Matrix Orange, drought, Table 2) was 6.7 days and the Shelf life (Pansy plants [2]; 30 mg ABA, Colossus Formula Mix, Table 18) was 6.2 days. The Shelf life (Pansy plants [2]; 30 mg ABA, Colossus Formula Mix, no water, Table 20) was 6.5 days, the Shelf life (Pansy plants [2]; 30 mg ABA, Delta Premium Pure White, Table 19) was 8.7 days and the Shelf life (Pansy plants [2]; 30 mg ABA, Delta Premium Pure White, Table 21) was 10.2 days. It also gave a Shelf life (Pansy plants [2]; 30 mg ABA, Delta Premium Pure White, Table 22) of 9.2 days, a Shelf life (Pansy plants [2]; 30 mg ABA, Delta Premium Pure White, Table 23) of 8.2 days and a Shelf life (Pansy plants [2]; 30 mg ABA, Delta Premium Pure White, Table 24) of 7.2 days. It also gave a Shelf life (Pansy plants [2]; 30 mg ABA, Matrix Premium Rose, no water from 1 day after ABA, Table 11) of 7.2 days, a Shelf life (Pansy plants [2]; 30 mg ABA, Matrix Yellow, Table 5) of 10.2 days and a Shelf life (Pansy plants [2]; 30 mg ABA, Matrix Yellow, Table 6) of 10.8 days. The Shelf life (Pansy plants [2]; 30 mg ABA, Matrix Yellow, Table 17) was 8.3 days, the Shelf life (Pansy plants [2]; 30 mg ABA, no water, Matrix Premium Rose, Table 13) was 7.2 days and the Shelf life (Pansy plants [2]; 30 mg, Clear Sky Yellow, drought, Table 8) was 7.8 days. For the same substance, the Shelf life (Pansy plants [2]; 30 mg, Crown Azure Blue, drought, Table 9) was 6.7 days, the Shelf life (Pansy plants [2]; 30 mg, Delta Premium Pure Golden Yellow, advanced seedling stage (1 month old), drought, Table 4) was 7.7 days and the Shelf life (Pansy plants [2]; 30 mg, Delta Premium Pure Golden Yellow, drought, Table 3) was 8.0 days. For the same substance, the Shelf life (Pansy plants [2]; 30 mg, Matrix Orange, drought, Table 1) was 8.0 days, the Shelf life (Pansy plants [2]; 30 mg, Matrix Orange, drought, Table 2) was 9.2 days and the Shelf life (Pansy plants [2]; 30 mg, Matrix Yellow, drought, Table 7) was 9.3 days. It also gave a Shelf life (Pansy plants [2]; 30 mg, Matrix Yellow, drought, Table 10) of 8.0 days.
